# Data published in patent US11413328B2, “Methods for treating inflammatory conditions of the lungs” (priority 2016, dated 2022).
# Bridges are numbered along the chain shown (N, C = ends). Where no end group is shown, it is not given here.
# What was measured:
# [1] = Pharmacokinetics after single oral gavage; format: in vivo, NMRI mice; details: oral 4 mg/kg in mice
# Description: Pharmacokinetic study to establish pharmacokinetic profile of hBD-2 following single oral gavage of 4 mg/kg administration to NMRI mice.
# 21 female NMRI mice were dosed by oral gavage 5 ml/kg using a gavage tube and a 1 ml syringe according to the individual body weight obtained on the day of dosing. Urine was strived sampled at random time points by gently massaging the inguinal area of the abdomen. The first blood sample was taken using a submandibular sampling method. The second blood sample was collected from Isoflurane anaesthetized mice. Intestinal samples were taken after euthanasia. The abdomen of each mouse was opened and three sections of the intestines were sampled.
# [2] = tested on: murine, infection induced, severe, steroid-insensitive, neutrophilic, allergic airways disease model of asthma; experiment: Differential leucocyte counts in BALF, Ovalbumin/C. muridarum steroid-insensitive asthma model; format: in vivo, BALB/c mice; details: Ova sensitized, C. muridarum infected mice, hBD-2 IN 5 mg/kg day 30, 32, 34
# Description: Female 6-8 weeks old BALB/c mice were intraperitoneally (IP) sensitized to ovalbumin 50 μg with the adjuvant alum 1 mg in 200 μL 0.9% saline. Mice were intranasally (IN) challenged with Ova on day 12-13 and day 33-34 (10 μg in 50 μL sterile saline).
# Airway inflammation: Differential leucocyte counts were obtained from May-Grunwald Giemsa stained BALF cells, using a light microscope.
# [3] = Pharmacokinetics after subcutaneous or intravenous administration; format: in vivo, NMRI female mice; details: female, NMRI, mouse, hBD-2 1 mg/kg subcutaneous or intravenous
# Description: To investigate and compare the pharmacokinetic profile of hBD-2 fused to the C-terminal (molecular weight 71.336 Da) or N-terminal (molecular weight 71.666 Da) of human serum albumin following subcutaneous or intravenous administration of a molar equivalent to 1 mg/kg hBD-2 (molecular weight […]) to NMRI female mice.
# The animals were dosed 10 ml/kg of stock concentration of 1.65 mg/ml according to the individual body weight (300 μL for a 30 gram mouse). First blood sample was taken using a submandibular sampling method and the second following Isoflurane anaesthesia and euthanasia.
# [4] = tested on: murine house dust mite/Freunds complete adjuvant driven model of allergic asthma; experiment: Lung resistance and compliance after methacholine, HDM/Freunds adjuvant asthma model (Example 2); format: in vivo, BALB/c mice; details: vs HDM challenged vehicle
# Description: Female 7-10 weeks old BALB/c mice were randomly allocated into 7 study groups one day prior to study start and subcutaneously (SC) sensitized to house dust mite (100 μg HDM in 200 μL saline plus Freunds complete adjuvant in 0.9% saline). Mice were then intranasally (IN) challenged with HDM on day 14 (HDM 25 μg in 50 μL of saline). […] The initial dose was administered 60 minutes prior to challenge, and the subsequent doses approximately 6 hours apart. Lung function: Starting 48 hours after HDM challenge, measurements of lung resistance and lung compliance were carried out after methacholine challenge (3.125 MCH1; 6.25 MCH2; 12.5 MCH3 and 25 mg/mL MCH4) by anaesthetized, cannulated mice using DSI's Buxco Finepoint RC system. Data are represented as airway resistance at […] and as dose responsive curves.
# [5] = tested on: murine house dust mite/Freunds complete adjuvant driven model of allergic asthma; experiment: Total and differential cell counts in BALF, HDM asthma model (Example 2); format: in vivo, BALB/c mice
# Description: Female 7-10 weeks old BALB/c mice were randomly allocated into 7 study groups one day prior to study start and subcutaneously (SC) sensitized to house dust mite (100 μg HDM in 200 μL saline plus Freunds complete adjuvant in 0.9% saline). Mice were then intranasally (IN) challenged with HDM on day 14 (HDM 25 μg in 50 μL of saline). […] The initial dose was administered 60 minutes prior to challenge, and the subsequent doses approximately 6 hours apart. Airway inflammation: At 48 hours post challenge, bronchoalveolar lavage was performed washing the lungs with 3 volumes of cold PBS (0.4; 0.3 and 0.3 mL, total 1 mL). Total and differential leucocyte cell counts were determined on an automated haematological analyser Sysmex XT-2000iV.
# [6] = tested on: microbiota of the intestine; experiment: 16S microbiota analysis, interventional defensin treatment in diet-induced obese mice (Example 11); format: in vivo; details: intervention
# From the text: The experiment elucidates the effect of hBD2 and HD5 on the microbiota in diet-induced obese mice. A run-in period of 13 weeks where mice were fed a very HFD (60% energy from fat) preceded the intervention. Only mice meeting the criteria of a minimum of 12 gram weight gain (approximately 50% of initial bodyweight) during the run-in period were included in the final analyses. […] They were exposed to all experimental tests, but excluded from the analyses.
# Before the intervention all mice were MR scanned. Cages of mice were allocated to experimental groups based on their fat mass. All subsequent measures were paired with data from the same mouse before the intervention. A LFD (low fat diet) reference group was running in parallel. As controls for the intervention 2 additional groups were included: 1 very HFD and 1 LFD. Experimental mice stayed on the very HFD during the intervention. The mice were on the experimental diet for 10 weeks. They were co-housed throughout the experiment, 4 mice per cage, 3 cages per group. All tests ran over 3 days, 1 cage per group per day.
# Microbial analyses were carried out to study the microbiota of the intestine. Longitudinal 16S characterization was conducted on 4 paired samples from 60 mice, 240 samples in total. Each mouse was sampled prior to diet change, 1 week post diet change, 4 weeks post diet change and at termination, thus ensuring a thorough characterization of the faecal microbiota as a result of defensin treatment.
sequence,measurement,setting,value
"GIGDPVTCLKSGAICHPVFCPRRYKQIGTCGLPGTKCCKKP (disulfide 8-37, 15-30, 20-38 (inferred)) [hBD-2, human beta defensin 2]",systemic availability after oral dosing,[1],not systemically available
same,macrophages in BALF,[2],did not change
same,neutrophil count in BALF,[2],complete normalization
same,eosinophils in BALF,[2]; DEX IN 2 mg/kg day 32-34,did not change
same,half-life,[3]; blood,1 h
same,CL renal,"[3]; in vivo, read-out: renal clearance",10 mL/min
same,decrease of pulmonary compliance,[4]; intranasal TID on day 14,effectively inhibited
same,increase of airway resistance,[4]; intranasal TID on day 14,effectively inhibited
same,decrease of pulmonary compliance,[4]; oral 0.4 mg/kg TID on day 14,effectively inhibited
same,increase of airway resistance / AHR,"[4]; oral, hBD-2 0.4 mg/kg TID, dexamethasone 1 mg/kg BID, day 14",effectively inhibited
same,neutrophil counts in BALF,[5]; intranasal 0.4 mg/kg/day TID,significantly inhibited
same,neutrophil counts in BALF,[5]; intranasal 1.7 mg/kg/day TID,significantly inhibited
same,abundance of Alloprevotella in the colon,[6]; HD5 p<0.02,no influence
same,relative abundance of Bifidobacteriaceae in the small intestine,[6]; hBD2 p<0.0001,dramatically and statistically significant increased
same,relative abundance of Bifidobacteriaceae in the colon,[6]; p<0.04,dramatically and statistically significant increased
